The record followed here is patent publication US12402627B2, “Metal complexes for promoting growth in a photosynthetic organism” (Imperial College Innovations Limited, priority 2018, dated 2025).

Assay [1] is described as follows: Kinetic measurement of HCO3− dehydration via stopped flow. It counts as biochemical. The conditions noted are these: for Dehydration kobs: pH 7.4, 25° C. The text has this:
(§1) The hydration and dehydration rate measurements were undertaken by detecting the associated pH change through the use of an appropriate colorimetric pH indicator via stopped-flow equipment (Applied Photophysics SX-20 Stopped-flow Spectrometer) as described by B. H. Gibbons et al. (J. Biol. Chem., 238(10), (1963), 3502-3507). The pH time-dependence of CO2 hydration or HCO3− dehydration was observed via the absorbance change of a buffered indicator solution in order to measure the change in Vhydr/dehydr over a concentration range of zinc mimic, and to determine the observed rate constant (kobs) for each reaction.
(§2) Following the procedure reported by K. Nakata et al. (J. Inorg. Biochem., 89, (2002), 255-266), a 0.1 M buffer solution containing 10×10^−5M indicator, 0.2 M NaClO4 and varying concentrations of the zinc complex in DMSO 1:9 H2O were loaded into one syringe and a CO2 or HCO3− aqueous solution in the other. […] The saturated solution was diluted appropriately to give the desired concentration of CO2. HCO3− solutions were prepared by dissolving NaHCO3 in water to give the desired concentration of HCO3−. The buffer-indicator pairs were chosen based upon their similar pKa's, and the pH of the buffer-indicator solution was adjusted to match these pKa's to maximize sensitivity to pH change (see Table 2).
(§3) Upon mixing of the two syringes, the change in absorbance over time was measured at 25° C. For each buffer solution employed over the tested pH range, the buffer factor (change in absorbance vs concentration of HCl/NaOH) and linearity of CO2 and HCO3− (change in absorbance vs concentration of CO2/HCO3−) were determined as controls.
(§4) Based upon the linearity of the response between CO2 or HCO3− concentration and change in absorbance, appropriate concentrations of CO2 or HCO3− were chosen within the linear range for the subsequent complex runs. At each concentration of complex, the Vhydr (rate of hydration) and Vdehyd (rate of dehydration) was measured and kobs (observed rate constant) was calculated as per the procedure of by K. Nakata et al. (J. Inorg. Biochem., 89, (2002), 255-266).
(§5) Briefly, Vhyd/dehyd=−Q(A0−Ae)[d(In(A−Ae))/dt]t→0, where Q=buffer factor. The function [d(In(A−Ae))/dt]t→0 was taken from fitting the first linear portion of the time-dependent absorbance data with a single exponential decay function. kobs was calculated as the slope of the linear fit between mimic concentration and Vhyd/dehyd/[S]. kcat (catalytic rate constant) was calculated as the pH independent catalyst rate constant as per K. Nakata et al. (J. Inorg. Biochem., 89, (2002), 255-266) and L. Koziol et al. (Inorg. Chem., 51(12), (2012) 6803-12) for the hydration reaction (kcat=kobs×(([H^+]/Ka)+1)), and Y.-J. Sun et al. (Inorg. Chem. Commun., 7(2), (2004), 165-168) for the dehydration reaction (kcat=(kobs×([H^+]+Ka))/[H^+]). Each run of 3 repeats was undertaken 3 times and the average taken, to give N=9.

For a further assay, the target named is T1, Rubisco (Spinacia oleracea, UniProt P00875).
T1 construct: from tissue; purified by the cited method of O'Donnelly et al., Plant Methods 2014
The assay is described as follows: Effect of zinc mimics on Rubisco activity (non-radioactive microplate assay, 3-PGA/NADH oxidation). In kind it is biochemical. To be noted: pH 8; 0-50 μM zinc mimic; FIGS. 4 to 7. As for the experimental part: Rubisco was purified using hydrophobic interaction chromatography as per the method of K. O'Donnelly et al. (Plant methods, 10, (2014), 17). For all assays, the rate was determined using a non-radioactive microplate-based assay, which determines the product 3-phosphoglycerate (3-PGA) through the oxidation of NADH by optical density measurements at 340 nm at 25° C., adapted from R. Sulpice et al. (Plant Cell Environ., 30(9), (2007), 1163-75) and K. O'Donnelly et al. (Plant methods, 10, (2014), 17). A Thermo Scientific Varioskan Flash Multimode microplate reader was used to monitor the oxidation of NADH for 15 minutes every 100 ms.
The enzymological properties of Rubisco were typically measured as follows: 10 μL Rubisco and 10 μL of initial buffer were incubated for 15 mins, after which 10 μL of ribulose 1,5-biphosphate (RuBP) was added [Final concentrations for Rubisco assay in 30 μL total volume were 0, 10, 20, 40, 80, 150, 300 and 500 μM RuBP, 0.02 mg/mL Rubisco, 100 mM tricine (pH 8.0/NaOH), 20 mM MgCl2, 2 mM EDTA and 10 mM NaHCO3]. […] The activity was calculated as μmol·min^−l·mg^−1 using a calibration curve with 3PGA. […]
10 μL of Rubisco and 10 μL of pH 8 initial buffer containing varying concentrations of zinc complex were incubated in a 96 well plate for 15 mins. […] The final pH, after the addition of NaHCO3, and before the addition of Rubisco, was measured as pH 8.0. […]

Assay [2] can be described thus: Kinetic measurement of CO2 hydration via stopped flow. It counts as biochemical. The conditions noted are these: pH 7.4; for Hydration kobs: 25° C.
Excerpt: as §1, §2, §3, §4, §5

The subject of assay [3] is spinach (Spinacia oleracea L.). The assay is described as follows: Effect of zinc mimics on spinach growth (number of new leaves). It counts as in vivo. The conditions noted are these: 1.5 mM in DMSO or H2O, 5 μl droplets to each leaf, three times a week for two weeks, FIG. 8. As to the method:
Commercial cultivar spinach seeds (Spinacia oleracea L.) were planted in soil mixture of “John Innes Inc. seed sowing compost No2”: Vermiculite (4:1) in small pots. Spinach seeds were germinated in a Sanyo MLR-352 growth chamber under day (photosynthetically active photon flux density (PPFD) at 110-130 μmol·m-2s-1) and night conditions, changing every 12 hours. Air temperature was maintained at 20° C. and 15° C. during day and night conditions, respectively, with a constant relative humidity at 65%. Spinach plants were irrigated three times a week. At the second true leaf stage (approximately 3 weeks from seed germination), the seeds were transferred into larger singular pots in “John Innes No2—Potting on compost” soil. No extra fertilizer was added.
At the fourth true leaf stage (roughly 4-6 weeks after germination), the treatment (1.5 mM in DMSO or H2O) was applied directly to each leaf of the plant in 5 μl droplets using a Brand Handystep S. The treatments were applied three times a week (directly after irrigation) for two weeks. The leaf stage and the state of the leaves were observed throughout the treatment period.

The mark [4] stands for this setting: high substrate concentration (16.9 mM).
[5] abbreviates: low substrate concentration (1.69 mM).

Turning to “zinc complex of bis(2-benzothiazolylmethyl)(2-benzimidazolylmethyl)amine [Zn1N2S]”, the specificity toward dehydration result in assay [1] (from the results in Tables 3 and 4, pH 7.4) was “best specificity toward dehydration”. The Dehydration kobs in assay [1] (setting [4]) was 51.9 ± 0.5 M⁻¹ s⁻¹; in assay [1] (setting [5]), 171.3 ± 4.5 M⁻¹ s⁻¹. For the same molecule, the rubisco activity result on Rubisco is reported as “significant improvement in activity”. Also, the “Hydration:Dehydration Ratio” value was found to be 0.49 in assay [2] (setting [4]) and 2.57 in assay [2] (setting [5]). Further, the Hydration kobs amounted to 25.3 ± 8.4 M⁻¹ s⁻¹ in assay [2] (setting [4]) and 440.8 ± 24.5 M⁻¹ s⁻¹ in assay [2] (setting [5]).
Regarding `O.[O-][Cl+3]([O-])([O-])[O-].[O-][Cl+3]([O-])([O-])[O-].[Zn+2].c1ccc2sc(CN(Cc3nc4ccccc4s3)Cc3nc4ccccc4s3)nc2c1` [Zn3S, zinc complex of tris(2-benzothiazolylmethyl)amine], the Dehydration kobs in assay [1] (setting [4]) came to 37.8 ± 0.8 M⁻¹ s⁻¹; in assay [1] (setting [5]) it was 140.8 ± 4.8 M⁻¹ s⁻¹. The rubisco activity result at Rubisco is reported as “significant improvement in activity”. For the same molecule, the “Hydration:Dehydration Ratio” value in assay [2] (setting [4]) is 0.65; in assay [2] (setting [5]) it was 3.05. Further, the Hydration kobs was determined as 24.5 ± 10.4 M⁻¹ s⁻¹ in assay [2] (setting [4]) and 429.7 ± 51.2 M⁻¹ s⁻¹ in assay [2] (setting [5]).
For “zinc complex of bis(2-benzimidazolylmethyl)(2-benzothiazolylmethyl)amine [Zn2N1S]”, the Dehydration kobs in assay [1] (setting [4]) came out at 44.6 ± 1.6 M⁻¹ s⁻¹; in assay [1] (setting [5]), 157.6 ± 2.1 M⁻¹ s⁻¹. The “Hydration:Dehydration Ratio” value worked out at 0.60 in assay [2] (setting [4]) and 3.14 in assay [2] (setting [5]). For the same molecule, the Hydration kobs in assay [2] (setting [4]) was 26.6 ± 11.1 M⁻¹ s⁻¹; in assay [2] (setting [5]), 495.4 ± 34.0 M⁻¹ s⁻¹.
For the molecule `O.[O-][Cl+3]([O-])([O-])[O-].[O-][Cl+3]([O-])([O-])[O-].[Zn+2].c1ccc2sc(CNCc3nc4ccccc4s3)nc2c1` [Zn2S, zinc complex of bis(2-benzothiazolylmethyl)amine], the figures for the Dehydration kobs in assay [1] (setting [4]) and in assay [1] (setting [5]) were 30.6 ± 0.6 M⁻¹ s⁻¹ and 115.2 ± 1.8 M⁻¹ s⁻¹, respectively. The entries for the “Hydration:Dehydration Ratio” value in assay [2] (setting [4]) and in assay [2] (setting [5]) were 0.57 and 3.01, respectively. In addition, the Hydration kobs stood at 17.5 ± 8.6 M⁻¹ s⁻¹ in assay [2] (setting [4]) and 347.1 ± 33.0 M⁻¹ s⁻¹ in assay [2] (setting [5]).
For “zinc complex of tris(2-benzimidazolylmethyl)amine [Zn3N]”, the Dehydration kobs in assay [1] (setting [4]) was 33.8 ± 0.8 M⁻¹ s⁻¹; in assay [1] (setting [5]), 124.1 ± 1.8 M⁻¹ s⁻¹. Also, the “Hydration:Dehydration Ratio” value in assay [2] (setting [4]) amounted to 1.02; in assay [2] (setting [5]), 4.13. The Hydration kobs in assay [2] (setting [4]) came to 34.4 ± 11.3 M⁻¹ s⁻¹; in assay [2] (setting [5]) it was 512.3 ± 60.3 M⁻¹ s⁻¹. In addition, the “number of new leaves” value in assay [3] is reported as “significant improvement in the number of new leaves”.
For “zinc complex of bis(2-benzimidazolylmethyl)amine [Zn2N]”, the figures for the Dehydration kobs in assay [1] (setting [4]) and in assay [1] (setting [5]) were 27.5 ± 0.5 M⁻¹ s⁻¹ and 94.1 ± 1.6 M⁻¹ s⁻¹, respectively. For the same molecule, the “Hydration:Dehydration Ratio” value in assay [2] (setting [4]) came out at 0.80; in assay [2] (setting [5]) it was 3.94. Besides, the Hydration kobs is 22.0 ± 9.3 M⁻¹ s⁻¹ in assay [2] (setting [4]) and 370.6 ± 13.4 M⁻¹ s⁻¹ in assay [2] (setting [5]).
